Patent US12208088B2 (Genentech, Inc., priority 2018, dated 2025)

Biological target: HPK1 (Homo sapiens (Human), UniProt Q92918)
Experiment: HPK1 Lantha binding assay ("Lanth")
Conditions: binding assays; Morrison Ki fit
In short: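 TR-FRET binding competition using 2 nM HPK1, 2 nM Eu-anti-GST antibody and 15 nM Tracer222 at 23 °C. Compound was incubated 1 h with enzyme and antibody, then 1 h after tracer addition, with an 11-point 5-fold dilution series. Ki obtained from a Morrison fit that corrects for tracer concentration and Kd.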

Chain of HPK1 (Q92918 1-346 limits assumed): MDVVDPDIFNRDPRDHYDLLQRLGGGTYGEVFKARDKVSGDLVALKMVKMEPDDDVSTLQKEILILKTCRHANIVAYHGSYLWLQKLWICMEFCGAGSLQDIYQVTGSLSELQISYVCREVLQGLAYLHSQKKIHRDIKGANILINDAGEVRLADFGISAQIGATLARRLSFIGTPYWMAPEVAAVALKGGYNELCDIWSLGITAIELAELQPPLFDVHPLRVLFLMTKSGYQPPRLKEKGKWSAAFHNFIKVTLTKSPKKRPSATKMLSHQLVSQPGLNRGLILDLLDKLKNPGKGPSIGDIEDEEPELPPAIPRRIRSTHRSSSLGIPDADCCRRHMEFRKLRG

| Compound | Ki |
| --- | --- |
| CN(C)C(=O)c1c(N)ccc(-c2cnc3c(c2Cl)[C@]2(CCC(=O)NC2)CN3)c1F (single isomer, unassigned) [Compound 123b] | 771 nM |
| C[C@H]1Nc2ncc(-c3ccc(N)c(C(=O)N(C)C)c3F)cc2C12CC2 (single isomer, unassigned) [Compound 128a] | 46.6 nM |
| C[C@@H]1Nc2ncc(-c3ccc(N)c(C(=O)N(C)C)c3F)cc2C12CC2 (single isomer, unassigned) [Compound 128b] | 42.2 nM |
| CN(C)C(=O)c1c(N)ccc(-c2cnc3c(c2Cl)[C@]2(CC[C@](C)(C#N)C2)CN3)c1F (single isomer, unassigned) [Compound 131a] | 3.93 nM |
| CN(C)C(=O)c1c(N)ccc(-c2cnc3c(c2Cl)[C@]2(CC[C@@H](CC(N)=O)C2)CN3)c1F (single isomer, unassigned) [Compound 135c] | 2.95 nM |
| CN(C)C(=O)c1c(N)ccc(-c2cnc3c(c2Cl)[C@]2(CC[C@H](N4CCCC4=O)C2)CN3)c1F (single isomer, unassigned) [Compound 143a] | 157 nM |
| CN(C)C(=O)c1c(N)ccc(-c2cnc3c(c2Cl)[C@@]2(CN3)C[C@H](O)[C@@H](n3ccnn3)C2)c1F (single isomer, unassigned) [Compound 146c] | 74.6 nM |
| CN(C)C(=O)c1c(N)ccc(-c2cnc3c(c2Cl)[C@@]2(CC[C@@](C)(C(N)=O)C2)CN3)c1F (single isomer, unassigned) [Compound 155b] | 84.8 nM |
| Cc1cc(C#N)nn1[C@H]1CC[C@@]2(CNc3ncc(-c4ccc(N)c(C(=O)N(C)C)c4F)c(Cl)c32)C1 (single isomer, unassigned) [Compound 162a] | 103 nM |
| CN(C)C(=O)c1c(N)ccc(-c2cnc3c(c2Cl)[C@]2(CC[C@H](n4ccc(C(F)(F)F)n4)C2)CN3)c1F (single isomer, unassigned) [Compound 168a] | 26.3 nM |
| Cn1cc([C@H]2CCCN2C(=O)c2cccc(-c3cnc4c(c3)C3(CC3)CN4)c2F)cn1 (single isomer, unassigned) [Compound 174a] | 74.2 nM |
| Cn1cc([C@@H]2CCCN2C(=O)c2cccc(-c3cnc4c(c3)C3(CC3)CN4)c2F)cn1 (single isomer, unassigned) [Compound 174b] | 582 nM |
| Cn1cc([C@H]2CCCCN2C(=O)c2cccc(-c3cnc4c(c3)C3(CC3)CN4)c2F)cn1 (single isomer, unassigned) [Compound 175a] | 4.2 nM |
| Cn1cc([C@@H]2CCCCN2C(=O)c2cccc(-c3cnc4c(c3)C3(CC3)CN4)c2F)cn1 (single isomer, unassigned) [Compound 175b] | 945 nM |
| Cn1cccc(-c2cccc(-c3cnc4c(c3Cl)[C@]3(CC[C@](C)(C(N)=O)C3)CN4)c2)c1=O (single isomer, unassigned) [Compound 179a] | 194 nM |
| Cn1cccc(-c2cccc(-c3cnc4c(c3Cl)[C@@]3(CC[C@@](C)(C(N)=O)C3)CN4)c2)c1=O (single isomer, unassigned) [Compound 179b] | 0.91 nM |
| CC1(C#N)CCCN1C(=O)c1cccc(-c2cnc3c(c2)C2(CC2)CN3)c1F (single isomer, unassigned) [Compound 191a] | 34.7 nM |
| CC(C)[C@H]1C[C@@]12CNc1ncc(-c3ccc(N)c(C(=O)N(C)C)c3F)c(Cl)c12 (single isomer, unassigned) [Compound 193a] | 3.64 nM |
| CC(C)[C@@H]1C[C@]12CNc1ncc(-c3ccc(N)c(C(=O)N(C)C)c3F)c(Cl)c12 (single isomer, unassigned) [Compound 193b] | 1.41 nM |
| CN(C)C(=O)c1cccc(-c2cnc3c(c2Cl)[C@]2(CC[C@](C)(C(N)=O)C2)CN3)c1F (single isomer, unassigned) [Compound 195b] | 6.23 nM |
| CCC[C@H]1C[C@@]12CNc1ncc(-c3ccc(N)c(C(=O)N(C)C)c3F)c(Cl)c12 (single isomer, unassigned) [Compound 197a] | 5.13 nM |
| CCC[C@@H]1C[C@]12CNc1ncc(-c3ccc(N)c(C(=O)N(C)C)c3F)c(Cl)c12 (single isomer, unassigned) [Compound 197b] | 3.64 nM |
| CN(C)C(=O)c1cccc(-c2cnc3c(c2)[C@]2(CC[C@](C)(C(N)=O)C2)CN3)c1F (single isomer, unassigned) [Compound 199a] | 941 nM |
| CN(C)C(=O)c1cccc(-c2cnc3c(c2)[C@@]2(CC[C@@](C)(C(N)=O)C2)CN3)c1F (single isomer, unassigned) [Compound 199b] | 105 nM |
| C[C@]1(C(N)=O)CC[C@@]2(CNc3ncc(-c4cccc(N5CCOCC5=O)c4F)c(Cl)c32)C1 (single isomer, unassigned) [Compound 202b] | 21.9 nM |
| CCC[C@H]1C[C@@]12CNc1ncc(-c3ccc(N)c(C(=O)N(C)C)c3F)cc12 (single isomer, unassigned) [Compound 217a] | 9.4 nM |
| CCC[C@@H]1C[C@]12CNc1ncc(-c3ccc(N)c(C(=O)N(C)C)c3F)cc12 (single isomer, unassigned) [Compound 217b] | 9.05 nM |

| Compound | Ki |
| --- | --- |
| CCC[C@@H]1C[C@@]12CNc1ncc(-c3ccc(N)c(C(=O)N(C)C)c3F)cc12 (single isomer, unassigned) [Compound 217c] | 67.9 nM |
| CCC[C@H]1C[C@]12CNc1ncc(-c3ccc(N)c(C(=O)N(C)C)c3F)cc12 (single isomer, unassigned) [Compound 217d] | 23.4 nM |
| C[C@H]1C[C@@]12CNc1ncc(-c3ccc(N)c(C(=O)N(C)C)c3F)c(Cl)c12 (single isomer, unassigned) [Compound 228a] | 4.76 nM |
| C[C@@H]1C[C@]12CNc1ncc(-c3ccc(N)c(C(=O)N(C)C)c3F)c(Cl)c12 (single isomer, unassigned) [Compound 228b] | 1.73 nM |
| C[C@H](c1cnn(C)c1)N(C)C(=O)c1cccc(-c2cnc3c(c2)C2(CC2)CN3)c1F (single isomer, unassigned) [Compound 229a] | 11 nM |
| C[C@@H](c1cnn(C)c1)N(C)C(=O)c1cccc(-c2cnc3c(c2)C2(CC2)CN3)c1F (single isomer, unassigned) [Compound 229b] | 13 nM |
| CC(C)[C@H]1C[C@@]12CNc1ncc(-c3ccc(N)c(C(=O)N(C)C)c3F)cc12 (single isomer, unassigned) [Compound 234a] | 3.92 nM |
| CC(C)[C@@H]1C[C@@]12CNc1ncc(-c3ccc(N)c(C(=O)N(C)C)c3F)cc12 (single isomer, unassigned) [Compound 234c] | 103 nM |
| CC(C)C1C[C@]12CNc1ncc(-c3ccc(N)c(C(=O)N(C)C)c3F)cc12 (single isomer, unassigned) [Compound 234d] | 51.9 nM |
| Cn1cc([C@H]2CCCCN2C(=O)c2c(N)ccc(-c3cnc4c(c3Cl)C3(CC=CC3)CN4)c2F)cn1 (single isomer, unassigned) [Compound 239a] | 0.89 nM |
| Cn1cc([C@@H]2CCCCN2C(=O)c2c(N)ccc(-c3cnc4c(c3Cl)C3(CC=CC3)CN4)c2F)cn1 (single isomer, unassigned) [Compound 239b] | 21 nM |
| Cn1cc([C@H]2CCCCN2C(=O)c2cccc(-c3cnc4c(c3Cl)C3(CC=CC3)CN4)c2F)cn1 (single isomer, unassigned) [Compound 240a] | 3.87 nM |
| Cn1cc([C@@H]2CCCCN2C(=O)c2cccc(-c3cnc4c(c3Cl)C3(CC=CC3)CN4)c2F)cn1 (single isomer, unassigned) [Compound 240b] | 112 nM |
| CC[C@H]1C[C@@]12CNc1ncc(-c3ccc(N)c(C(=O)N(C)C)c3F)cc12 (single isomer, unassigned) [Compound 243a] | 5.78 nM |
| CC[C@@H]1C[C@]12CNc1ncc(-c3ccc(N)c(C(=O)N(C)C)c3F)cc12 (single isomer, unassigned) [Compound 243b] | 10.4 nM |
| CC[C@@H]1C[C@@]12CNc1ncc(-c3ccc(N)c(C(=O)N(C)C)c3F)cc12 (single isomer, unassigned) [Compound 243c] | 63.1 nM |
| CC[C@H]1C[C@]12CNc1ncc(-c3ccc(N)c(C(=O)N(C)C)c3F)cc12 (single isomer, unassigned) [Compound 243d] | 25.1 nM |
| Cn1cc(C2CCCCN2C(=O)c2cccc(-c3cnc4c(c3Cl)[C@]3(CC[C@H](O)CC3)CN4)c2F)cn1 (single isomer, unassigned) [Compound 246a] | 10.3 nM |
| Cn1cc(C2CCCCN2C(=O)c2cccc(-c3cnc4c(c3Cl)[C@]3(CC[C@H](O)CC3)CN4)c2F)cn1 (single isomer, unassigned) [Compound 246b] | 316 nM |
| Cn1cc(C2CCCCN2C(=O)c2c(N)ccc(-c3cnc4c(c3)[C@]3(CC[C@H](O)CC3)CN4)c2F)cn1 (single isomer, unassigned) [Compound 253a] | 23.1 nM |
| Cn1cc(C2CCCCN2C(=O)c2c(N)ccc(-c3cnc4c(c3Cl)[C@]3(CC[C@H](O)CC3)CN4)c2F)cn1 (single isomer, unassigned) [Compound 254a] | 5.2 nM |
| Cn1cc(C2CCCCN2C(=O)c2c(N)ccc(-c3cnc4c(c3Cl)[C@]3(CC[C@H](O)CC3)CN4)c2F)cn1 (single isomer, unassigned) [Compound 254b] | 109 nM |
| CN(C)C(=O)c1c(N)ccc(-c2cnc3c(c2Cl)[C@]2(CC[C@](C)(C#N)C2)CN3)c1F (single isomer, unassigned) [Compound 261a] | 4.2 nM |
| CN(C)C(=O)c1c(N)ccc(-c2cnc3c(c2Cl)[C@@]2(CC[C@@](C)(C#N)C2)CN3)c1F (single isomer, unassigned) [Compound 261b] | 37.1 nM |
| Cc1c(CC#N)ccnc1-c1cccc(-c2cnc3c(c2Cl)[C@]2(CC[C@](C)(C#N)C2)CN3)c1F (single isomer, unassigned) [Compound 266a] | 65.3 nM |
| Cc1c(CC#N)ccnc1-c1cccc(-c2cnc3c(c2Cl)[C@@]2(CC[C@@](C)(C#N)C2)CN3)c1F (single isomer, unassigned) [Compound 266b] | 3.9 nM |
| Cc1c(CC#N)ccnc1-c1cccc(-c2cnc3c(c2Cl)[C@]2(CC[C@](C)(C(N)=O)C2)CN3)c1F (single isomer, unassigned) [Compound 267a] | 110 nM |
